This passage reports IC50 results from patent publication US12024503B2, “Benzethers and anilines of pyrazolyl-amino-pyrimidinyl derivatives, and compositions and methods thereof” (LYNK PHARMACEUTICALS CO. LTD., priority 2019, dated 2024).

What all share (assay type): biochemical
One experiment has as its target T1, TYK2 (Homo sapiens, UniProt P29597).
T1 construct: purchased Carna Biosciences
The experiment in a line: TYK2 microfluidic kinase assay (Caliper EZ Reader II, FAM labeled peptide substrate). Conditions: (2.5 nM), 1 mM ATP. Here is the method: (§1) Compounds were tested against JAK1, JAK2, JAK2V617F and TYK2.
(§2) Assay Formats: JAK activity was determined in the reaction buffer 50 mM HEPES, 0.01% Brij35, 10 mMMgCl2, 2 mMDTT by a microfluidic assay. The phosphorylation of a FAM labeled peptide substrate was monitored in the Caliper EZ Reader II (Perkin Elmer). The assay condition for each batch of enzyme (Carna Biosciences) was optimized to obtain 10% conversion rate of peptide substrate.
(§3) The test compounds were dissolved in DMSO to a stock concentration of 10 mM. 3-fold serially diluted compounds with top concentration of 5 μM were pre-incubated with JAK1, JAK2, JAK2V617F or TYK2 for 10 min at ambient temperature. The final DMSO concentration of assay mixture was 1%. FAM labeled peptide substrate (final concentration […]) and ATP (1 mM concentration) were sequentially added to initiate the kinase reaction at 28° C. The reaction was stopped by adding 50 mMEDTA. The reaction time for JAK1, JAK2, JAK2V617F and TYK2 was 120 min, 20 min, 30 min and 10 min, respectively.
(§4) The well in the test plate without enzyme was defined as 100% inhibition. And the well without compound but with equivalent DMSO was defined as no inhibition. The percent inhibition was calculated by the following formula. % Inhibition=(Conversionmax−Conversionsample)/(Conversionmax−Conversionmin)*100Conversionmax means the conversion rate in the positive well without addition of compound Conversionmin means the conversion rate in the well without addition of enzyme Conversionsample means the conversion rate of test compounds
(§5) The dose-response (percent inhibition) curve was plotted and IC50 values were determined by GraphPad software.

The target of the next experiment is T2, JAK2 (Homo sapiens, UniProt O60674).
T2 construct: purchased Carna Biosciences
T2 sequence (O60674 whole entry): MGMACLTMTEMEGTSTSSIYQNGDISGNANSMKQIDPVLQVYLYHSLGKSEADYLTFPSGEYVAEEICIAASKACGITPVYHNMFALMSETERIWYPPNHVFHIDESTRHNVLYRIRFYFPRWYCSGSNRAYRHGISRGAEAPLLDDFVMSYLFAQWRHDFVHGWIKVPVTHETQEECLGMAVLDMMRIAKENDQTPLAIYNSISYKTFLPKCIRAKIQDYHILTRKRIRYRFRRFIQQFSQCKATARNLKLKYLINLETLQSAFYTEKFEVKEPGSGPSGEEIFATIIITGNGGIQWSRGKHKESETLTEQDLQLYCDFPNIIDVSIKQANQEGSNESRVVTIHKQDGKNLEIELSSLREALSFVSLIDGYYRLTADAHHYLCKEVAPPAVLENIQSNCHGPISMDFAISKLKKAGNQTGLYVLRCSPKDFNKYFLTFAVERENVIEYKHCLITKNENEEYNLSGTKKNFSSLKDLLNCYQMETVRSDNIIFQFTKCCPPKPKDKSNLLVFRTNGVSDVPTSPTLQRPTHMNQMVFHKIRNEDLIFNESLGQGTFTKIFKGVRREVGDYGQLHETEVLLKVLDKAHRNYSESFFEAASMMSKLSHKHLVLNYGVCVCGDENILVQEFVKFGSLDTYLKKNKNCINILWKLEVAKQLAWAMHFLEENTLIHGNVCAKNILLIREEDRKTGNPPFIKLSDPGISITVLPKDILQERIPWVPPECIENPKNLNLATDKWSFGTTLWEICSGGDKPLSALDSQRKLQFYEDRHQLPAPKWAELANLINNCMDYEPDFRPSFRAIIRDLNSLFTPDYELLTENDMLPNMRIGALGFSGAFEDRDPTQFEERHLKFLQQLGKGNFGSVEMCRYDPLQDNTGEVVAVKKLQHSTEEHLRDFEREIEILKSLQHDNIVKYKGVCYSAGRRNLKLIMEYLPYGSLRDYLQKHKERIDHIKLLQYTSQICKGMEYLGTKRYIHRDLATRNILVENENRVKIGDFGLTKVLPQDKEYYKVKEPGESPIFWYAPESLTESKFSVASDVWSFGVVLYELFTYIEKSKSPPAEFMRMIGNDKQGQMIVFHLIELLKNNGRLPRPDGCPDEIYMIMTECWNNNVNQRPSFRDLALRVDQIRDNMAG
The experiment in a line: JAK2 microfluidic kinase assay (Caliper EZ Reader II, FAM labeled peptide substrate). The conditions noted are these: (0.25 nM), 1 mM ATP. As to the method: as §1, §2, §3, §4, §5

For a further experiment, the target named is T3, JAK2V617F (Homo sapiens, UniProt O60674, V617F).
T3 construct: purchased Carna Biosciences
T3 sequence (O60674 whole entry V617F): as the sequence (O60674 whole entry) above, with V617F counted along it
The experiment in a line: JAK2V617F microfluidic kinase assay (Caliper EZ Reader II, FAM labeled peptide substrate). The conditions noted are these: (2.5 nM), 1 mM ATP. As to the method: as §1, §2, §3, §4, §5

The next experiment concerns the target T4, JAK1 (Homo sapiens, UniProt P23458).
T4 construct: purchased Carna Biosciences
The experiment in a line: JAK1 microfluidic kinase assay (Caliper EZ Reader II, FAM labeled peptide substrate). The conditions noted are these: (5 nM), 1 mM ATP. As to the method: as §1, §2, §3, §4, §5

[1] abbreviates: Table 2, read-out: IC50 TYK2 (2.5 nM) (1 mM ATP).
The mark [2] stands for this setting: Table 2, read-out: IC50 JAK2 (0.25 nM) (1 mM ATP).
[3] abbreviates: Table 2, read-out: IC50 J2V617F (2.5 nM) (1 mM ATP).
Where [4] appears, read: Table 2, read-out: IC50 JAK1 (5 nM) (1 mM ATP).
The mark [5] stands for this setting: Table 3B, literature compounds, read-out: TYK2 (2.5 nM) (1 mM ATP).
Where [6] appears, read: Table 3B, literature compounds, read-out: JAK2 (0.25 nM) (1 mM ATP).
The mark [7] stands for this setting: Table 3B, literature compounds, read-out: J2V617F (2.5 nM) (1 mM ATP).
[8] abbreviates: Table 3B, literature compounds, read-out: JAK1 (5 nM) (1 mM ATP).

Like-named read-outs stand apart in the source and are kept apart here. Some results are limits rather than exact numbers.

T4 sequence (P23458 whole entry): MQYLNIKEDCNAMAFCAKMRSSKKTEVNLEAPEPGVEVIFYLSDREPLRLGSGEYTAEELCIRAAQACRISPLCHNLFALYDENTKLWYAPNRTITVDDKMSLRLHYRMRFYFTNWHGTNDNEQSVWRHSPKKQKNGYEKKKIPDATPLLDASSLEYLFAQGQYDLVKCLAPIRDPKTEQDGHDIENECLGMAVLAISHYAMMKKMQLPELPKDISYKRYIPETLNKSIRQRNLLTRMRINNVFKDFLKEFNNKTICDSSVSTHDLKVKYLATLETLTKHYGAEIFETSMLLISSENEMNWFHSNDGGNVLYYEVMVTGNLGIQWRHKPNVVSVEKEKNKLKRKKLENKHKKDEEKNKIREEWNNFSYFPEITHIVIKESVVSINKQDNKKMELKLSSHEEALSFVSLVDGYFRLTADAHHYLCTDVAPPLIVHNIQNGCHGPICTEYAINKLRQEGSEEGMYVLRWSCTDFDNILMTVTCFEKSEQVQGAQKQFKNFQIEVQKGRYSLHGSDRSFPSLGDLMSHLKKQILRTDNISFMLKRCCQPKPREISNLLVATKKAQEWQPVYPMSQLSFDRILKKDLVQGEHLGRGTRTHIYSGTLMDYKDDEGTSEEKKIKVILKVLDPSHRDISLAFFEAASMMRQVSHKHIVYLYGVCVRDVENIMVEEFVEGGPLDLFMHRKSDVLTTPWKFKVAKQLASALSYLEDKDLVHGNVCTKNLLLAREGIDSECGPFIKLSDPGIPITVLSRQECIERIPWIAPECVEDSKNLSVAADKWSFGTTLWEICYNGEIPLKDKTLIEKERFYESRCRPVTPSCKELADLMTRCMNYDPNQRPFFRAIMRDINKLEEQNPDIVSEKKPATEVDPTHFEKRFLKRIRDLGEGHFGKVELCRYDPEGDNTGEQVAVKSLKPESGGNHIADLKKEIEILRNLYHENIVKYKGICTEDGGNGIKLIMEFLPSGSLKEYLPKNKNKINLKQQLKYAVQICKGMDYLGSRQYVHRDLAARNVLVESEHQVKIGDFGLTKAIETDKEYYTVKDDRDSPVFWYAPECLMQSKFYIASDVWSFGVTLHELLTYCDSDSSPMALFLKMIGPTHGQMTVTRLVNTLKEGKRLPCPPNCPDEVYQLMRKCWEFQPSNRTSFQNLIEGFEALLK
T1 sequence (P29597 whole entry): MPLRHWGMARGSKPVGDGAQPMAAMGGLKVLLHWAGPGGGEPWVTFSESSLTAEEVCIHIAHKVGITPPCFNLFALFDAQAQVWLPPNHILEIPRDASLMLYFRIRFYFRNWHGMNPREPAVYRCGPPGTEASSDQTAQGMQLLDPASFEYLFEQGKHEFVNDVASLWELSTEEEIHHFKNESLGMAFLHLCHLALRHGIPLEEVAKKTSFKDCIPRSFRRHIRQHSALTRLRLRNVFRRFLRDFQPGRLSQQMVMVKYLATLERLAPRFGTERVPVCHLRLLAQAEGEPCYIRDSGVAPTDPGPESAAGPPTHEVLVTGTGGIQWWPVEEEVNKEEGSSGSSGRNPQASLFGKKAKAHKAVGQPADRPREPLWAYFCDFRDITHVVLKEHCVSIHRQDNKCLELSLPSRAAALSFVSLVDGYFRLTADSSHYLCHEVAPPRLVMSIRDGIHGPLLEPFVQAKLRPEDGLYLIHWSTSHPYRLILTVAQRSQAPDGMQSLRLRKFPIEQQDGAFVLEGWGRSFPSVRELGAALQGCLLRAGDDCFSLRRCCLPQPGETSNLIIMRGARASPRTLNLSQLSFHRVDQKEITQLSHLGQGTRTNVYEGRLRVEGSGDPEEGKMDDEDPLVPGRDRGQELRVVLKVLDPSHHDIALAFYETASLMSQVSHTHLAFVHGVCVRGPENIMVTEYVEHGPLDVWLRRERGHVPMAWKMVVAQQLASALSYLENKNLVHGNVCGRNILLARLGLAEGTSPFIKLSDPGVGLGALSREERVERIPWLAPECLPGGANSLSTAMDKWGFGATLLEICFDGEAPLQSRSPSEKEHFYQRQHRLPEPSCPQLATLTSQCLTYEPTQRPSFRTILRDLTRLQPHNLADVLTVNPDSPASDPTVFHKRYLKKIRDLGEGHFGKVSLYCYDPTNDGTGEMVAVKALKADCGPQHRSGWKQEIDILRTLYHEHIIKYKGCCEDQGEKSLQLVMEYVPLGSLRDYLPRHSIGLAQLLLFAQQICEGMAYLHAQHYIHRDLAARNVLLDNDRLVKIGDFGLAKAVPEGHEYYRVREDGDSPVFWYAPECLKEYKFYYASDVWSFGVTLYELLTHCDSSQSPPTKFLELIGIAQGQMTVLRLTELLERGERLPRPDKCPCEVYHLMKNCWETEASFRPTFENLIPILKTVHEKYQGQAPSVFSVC

As to `Cc1cnc(Nc2cnn(C3CC3)c2)nc1-c1ccc(OCC(C)(C)C#N)cc1` [Example 1, 3-(4-(2-((1-cyclopropyl-1H-pyrazol-4-yl)amino)-5-methylpyrimidin-4-yl)phenoxy)-2,2-dimethylpropanenitrile], the IC50 at TYK2 (setting [1]) is 12 nM; at JAK2 (setting [2]), 0.27 nM; on JAK2V617F (setting [3]) it was 3.18 nM; at JAK1 (setting [4]) it was 4.8 nM.
Taken in the same sequence, the figures for `Cc1cnc(Nc2cnn(C3CC3)c2)nc1-c1ccc(OCC(C)(C)C#N)c(F)c1` [Example 4, 3-(4-(2-((1-cyclopropyl-1H-pyrazol-4-yl)amino)-5-methylpyrimidin-4-yl)-2-fluorophenoxy)-2,2-dimethylpropanenitrile] were below 1.25 nM, 0.425 nM, below 1.25 nM and below 2.5 nM.
For `Cc1cnc(Nc2cnn(C3CCN(C)CC3)c2)nc1-c1ccc(OCC(C)(C)C#N)cc1` [Example 17, 2,2-dimethyl-3-(4-(5-methyl-2-((1-(1-methylpiperidin-4-yl)-1H-pyrazol-4-yl)amino)pyrimidin-4-yl)phenoxy)propanenitrile], in that order: below 1.25 nM, below 0.25 nM, below 1.25 nM and below 2.5 nM.
Taken in the same sequence, the figures for `COCCn1cc(Nc2ncc(C)c(-c3ccc(OCC(C)(C)C#N)c(F)c3)n2)cn1` [Example 19, 3-(2-fluoro-4-(2-((1-(2-methoxyethyl)-1H-pyrazol-4-yl)amino)-5-methylpyrimidin-4-yl)phenoxy)-2,2-dimethylpropanenitrile] were below 1.25 nM, below 0.25 nM, below 1.25 nM and below 2.5 nM.
`COCCn1cc(Nc2ncc(C)c(-c3ccc(OCC4(C#N)CC4)c(F)c3)n2)cn1` [Example 21, 1-((2-fluoro-4-(2-((1-(2-methoxyethyl)-1H-pyrazol-4-yl)amino)-5-methylpyrimidin-4-yl)phenoxy)methyl)cyclopropane-carbonitrile]: the IC50 at TYK2 (setting [1]) was below 1.25 nM; at JAK2 (setting [2]), below 0.25 nM; on JAK2V617F (setting [3]) it was below 1.25 nM; on JAK1 (setting [4]), 7.31 nM.
`Cc1cnc(Nc2cnn(C3CC3)c2)nc1-c1ccc(N(C)CC2(C#N)CC2)c(F)c1` [Example 33, 1-(((4-(2-((1-cyclopropyl-1H-pyrazol-4-yl)amino)-5-methylpyrimidin-4-yl)-2-fluorophenyl)(methyl)amino)methyl) cyclopropanecarbonitrile]: the IC50 was 30 nM at TYK2 (setting [1]), below 0.25 nM at JAK2 (setting [2]), 6.16 nM on JAK2V617F (setting [3]) and 10.8 nM on JAK1 (setting [4]).
Consider `CCOc1ccc(-c2nc(Nc3cnn(C)c3)ncc2C)cc1F` [Example 46, 4-(4-ethoxy-3-fluorophenyl)-5-methyl-N-(1-methyl-1H-pyrazol-4-yl)pyrimidin-2-amine, reference compound], for which the IC50 on TYK2 (setting [5]) came to 74.9 nM; on JAK2 (setting [6]), 60.6 nM; at JAK2V617F (setting [7]) it was 86.3 nM; at JAK1 (setting [8]), 40.6 nM.
For `CCOc1ccc(-c2nc(Nc3cnn(C(C)C)c3)ncc2C)cc1F` [Example 49, 4-(4-ethoxy-3-fluorophenyl)-N-(1-isopropyl-1H-pyrazol-4-yl)-5-methylpyrimidin-2-amine, reference compound], the IC50 on TYK2 (setting [5]) was 41.3 nM; at JAK2 (setting [6]), 80.7 nM; at JAK2V617F (setting [7]), 103 nM; at JAK1 (setting [8]) it was 52.6 nM.
Taken in the same sequence, the figures for `CCOc1ccc(-c2nc(Nc3cnn(C)c3)ncc2C)cc1` [Example 50, 4-(4-ethoxyphenyl)-5-methyl-N-(1-methyl-1H-pyrazol-4-yl)pyrimidin-2-amine, reference compound] were 157 nM, 201 nM, 343 nM and 151 nM.
